Results taken from patent US6410566B1, “Cyclic amine derivatives and their use as drugs” (Teijin Limited, priority 2000, dated 2002).

Target: T1, binding of human MCP-1 to THP-1 cells (Homo sapiens, UniProt P41597)
T1 construct: endogenous in cells; host or cells: THP-1 (human monocytic leukemia cell line), whole cells
T1 sequence (P41597 1-360 isoform P41597-2): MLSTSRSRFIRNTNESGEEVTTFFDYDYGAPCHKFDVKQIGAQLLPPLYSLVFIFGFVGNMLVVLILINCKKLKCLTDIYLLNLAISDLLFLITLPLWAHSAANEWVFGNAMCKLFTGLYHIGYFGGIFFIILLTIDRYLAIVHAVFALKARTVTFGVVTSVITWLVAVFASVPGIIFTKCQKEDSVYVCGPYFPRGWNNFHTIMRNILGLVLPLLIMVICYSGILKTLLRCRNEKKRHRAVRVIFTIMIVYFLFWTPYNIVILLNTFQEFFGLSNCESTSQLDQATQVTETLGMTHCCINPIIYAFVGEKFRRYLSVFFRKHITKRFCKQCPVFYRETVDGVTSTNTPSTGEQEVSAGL
Assay: Inhibition of binding of [125I]-labeled baculovirus expressed human MCP-1 to THP-1 cells (Method 2)
Settings: Method 2, at 1 μM
Excerpt: 1. Construction of recombinant baculovirus carrying the human MCP-1 gene
Based on the previously published human MCP-1 gene sequence (for example T. Yoshirnura et al., FEBS Lett., 1989, 244, 487-493), two synthetic DNA primers (5′-[…]-3′ and 5′-[…]-3′) flanked by restriction enzyme sites were used to amplify a DNA fragment from cDNA derived from human endothelial cells (purchased from Kurabow Co.); the amplified fragment was cut with the restriction enzymes (PstI and XbaI), ligated into a transfer vector pVL1393 (Invitrogen Co.), and the resulting vector was co-transfected along with infectious baculovirus into Sf-9 insect cells and the supernatant was plaque assayed to yield human MCP-1 gene baculovirus recombinant.
2. Synthesis of [^125I]-labeled human MCP-1 expressed in baculovirus
Using the method of K. Ishii et al. (Biochem Biophys Research Communications, 1995, 206, 955-961), 5×10^6 Sf-6 insect cells was infected with 5×10^7 PFU (plaque forming units) of the above human MCP-1 recombinant baculovirus and cultured for 7 days in Ex-Cell 401 medium. The culture supernatant was affinity purified using a heparin Sepharose column (Pharmacia Co.) and then further purified using reverse phase HPLC (Vydac C18 column) to prepare purified human MCP-1. The purified human MCP-1 was protein labeled by Amersham Co. using the Bolton Hunter method to yield [^125I]-labeled baculovirus expressed human MCP-1 (specific activity 2000 Ci/mmol).
3-2. Measurement of inhibition of binding of [^125I]-labeled baculovirus expressed human MCP-1 to THP-1 cells (Method 2)
Human monocytic leukemia cell line THP-1 was suspended in assay buffer (50 mM HEPES, pH 7.4, 1.0 mM CaCl2, 5.0% mM MgCl2, 0.5% BSA) to give a cell suspension of a concentration of 1×10^7 cells/mL. The test compound was diluted in the assay buffer and used as the test compound solution. [^125I]-labeled human MCP-1 described above was diluted in assay buffer to 1 mCi/mL and used as the labeled ligand solution. In a 96 well filter plate (Millipore Co.), 25 μL of test compound solution, 25 μL of labeled ligand solution and 50 μL of cell suspension were aliquoted into each well in this order, stirred (total reaction volume 100 μL), and incubated for one hour at 18° C.
After the reaction, the reaction solution was filtered, and the filter was washed twice with 200 μL of cold PBS (200 μL of cold PBS was added and then filtered). The filter was air-dried and 25 μL of liquid scintillator was added into each well. The radioactivity retained by the cells on the filter were measured using TopCount (Packard Instrument Co.).
To calculate the ability of test compound to inhibit binding of human MCP-1 to THP-1 cells, non-specific binding determined by adding 100 ng of unlabeled human MCP-1 in place of the test compound was subtracted, while the counts with no test compound added was taken as 100%.
Inhibition (%)={1−(A−B)/(C−B)}×100
(A, counts with test compound added; B, counts with 100 ng of unlabeled human MCP-1 added; C, counts with [^125I]-labeled human MCP-1 added).

Row | SMILES | inhibition at 1 µM [%]
1 | Cc1ccc(C(=O)NCC(=O)N[C@@H]2CCN(Cc3ccc(Cl)cc3)C2)cc1Br [Compound No. 1098, (R)-1-(4-Chlorobenzyl)-3-[{N-(3-bromo-4-methylbenzoyl)glycyl}amino]pyrrolidine] | 20 to 50
2 | CCOc1ccc(CN2CCC(CNC(=O)CNC(=O)c3cc(Cl)ccc3N)CC2)cc1 [Compound No. 1429, 4-[{-(2-Amino-5-chlorobenzoyl)glycyl}aminomethyl]-1-(4-ethoxybenzyl)piperidine] | 20 to 50
3 | O=C(CNC(=O)c1cccc(C(F)(F)F)c1)NCC1CCN(Cc2ccc(Cl)cc2)C1 (stereo not drawn) [Compound No. 1463, 3-[{N-(3-Trifluoromethylbenzoyl)glycyl}aminomethyl]-1-(4-chlorobenzyl)pyrrolidine] | 20 to 50
4 | Nc1cc(F)c(F)cc1C(=O)NCC(=O)NCC1CCN(Cc2ccc(Cl)cc2)C1 (stereo not drawn) [Compound No. 1506, 3-[{N-(2-Amino-4,5-difluorobenzoyl)glycyl}aminomethyl]-1-(4-chlorobenzyl)pyrrolidine] | 50 to 80
5 | CS(=O)(=O)Nc1ccc(Br)cc1C(=O)NCC(=O)NCC1CCN(Cc2ccc(Cl)cc2)CC1 [Compound No. 1581, 4-[{N-(5-Bromo-2-(methylsulfonylamino)benzoyl)glycyl}aminomethyl]-1-(4-chlorobenzyl)piperidine] | 20 to 50
6 | CS(=O)(=O)N(c1ccc(Br)cc1C(=O)NCC(=O)NCC1CCN(Cc2ccc(Cl)cc2)CC1)S(C)(=O)=O [Compound No. 1582, 4-[{N-(5-Bromo-2-(bis(methylsulfonyl)amino)benzoyl)glycyl}aminomethyl]-1-(4-chlorobenzyl)piperidine] | 20 to 50
7 | Nc1ccc(Cl)cc1C(=O)NCC(=O)NCC1CCN(Cc2ccc(SC(F)(F)F)cc2)CC1 [Compound No. 1616, 4-[{N-(2-Amino-5-chlorobenzoyl)glycyl}aminomethyl]-1-{4-(trifluoromethylthio)benzyl}piperidine] | 20 to 50
8 | CC(C)c1ccc(CN2CCC(CNC(=O)CNC(=O)c3cc(OC(F)(F)F)ccc3N)CC2)cc1 [Compound No. 1903, 4-[{N-(2-Amino-5-trifluoromethoxybenzoyl)glycyl}aminomethyl]-1-(4-isopropylbenzyl)piperidine] | 50 to 80
9 | Nc1ccc(OC(F)(F)F)cc1C(=O)NCC(=O)N[C@@H]1CCN(Cc2ccc(Cl)cc2Cl)C1 [Compound No. 1905, (R)-3-[{N-(2-Amino-5-(trifluoromethoxy)benzoyl)glycyl}amino]-1-(2,4-dichlorobenzyl)pyrrolidine] | 50 to 80
10 | Nc1ccc(OC(F)(F)F)cc1C(=O)NCC(=O)NCC1CCN(Cc2ccc(Br)cc2)CC1 [Compound No. 1910, 4-[{N-(2-Amino-5-trifluoromethoxybenzoyl)glycyl}aminomethyl]-1-(4-bromobenzyl)piperidine] | 50 to 80
11 | CCOc1ccc(CN2CCC(CNC(=O)CNC(=O)c3cc(F)c(F)cc3N)CC2)cc1OCC [Compound No. 2065, 4-[{N-(2-amino-4,5-difluorobenzoyl)glycyl}aminomethyl]-1-(3,4-diethoxybenzyl)piperidine] | 20 to 50
12 | COc1ccc(CN2CCC(CNC(=O)CNC(=O)c3cc(F)c(F)cc3N)CC2)cc1N [Compound No. 2113, 4-[{N-(2-amino-4,5-difluorobenzoyl)glycyl}aminomethyl]-1-(3-amino-4-methoxybenzyl)piperidine] | > 80
13 | Nc1ccc(C(F)(F)F)cc1C(=O)NCC(=O)N[C@@H]1CCN(Cc2ccc(Br)cc2F)C1 [Compound No. 2120, (R)-3-[{N-(2-Amino-5-trifluoromethylbenzoyl)glycyl}amino]-1-(4-bromo-2-fluorobenzyl)pyrrolidine] | > 80
14 | Nc1cc2c(cc1CN1CC[C@@H](NC(=O)CNC(=O)c3cc(C(F)(F)F)ccc3N)C1)OCO2 [Compound No. 2127, (R)-1-(2-Amino-4,5-methylenedioxybenzyl)-3-[{N-(2-amino-5-trifluoromethylbenzoyl)glycyl}amino]pyrrolidine] | > 80
15 | CN(C)c1cc(CN2CC[C@@H](NC(=O)CNC(=O)c3cc(C(F)(F)F)ccc3N)C2)ccc1Cl [Compound No. 2133, (R)-3-[{N-(2-Amino-5-trifluoromethylbenzoyl)glycyl}amino]-1-{4-chloro-3-(dimethylamino)benzyl}pyrrolidine] | > 80
16 | Nc1cc(CN2CC[C@@H](NC(=O)CNC(=O)c3cc(C(F)(F)F)ccc3N)C2)ccc1O [Compound No. 2187, (R)-1-(3-Amino-4-hydroxybenzyl)3-[{N-(2Amino-5-trifluoromethylbenzoyl)glycyl}amino]pyrrolidine] | > 80

Target: T1, binding of human MCP-1 to THP-1 cells
Assay: Inhibition of binding of [125I]-labeled baculovirus expressed human MCP-1 to THP-1 cells (Method 1)
Settings: Method 1, at 10 μM
Excerpt: Measurement of Inhibition of MCP-1 Binding to THP-1 Cells 1. Construction of recombinant baculovirus carrying the human MCP-1 gene Based on the previously published human MCP-1 gene sequence (for example T. Yoshirnura et al., FEBS Lett., 1989, 244, 487-493), two synthetic DNA primers ([NT] and [NT]) flanked by restriction enzyme sites were used to amplify a DNA fragment from cDNA derived from human endothelial cells (purchased from Kurabow Co.); the amplified fragment was cut with the restriction enzymes (PstI and XbaI), ligated into a transfer vector pVL1393 (Invitrogen Co.), and the resulting vector was co-transfected along with infectious baculovirus into Sf-9 insect cells and the supernatant was plaque assayed to yield human MCP-1 gene baculovirus recombinant. […] Using the method of K. Ishii et al. […] The culture supernatant was affinity purified using a heparin Sepharose column (Pharmacia Co.) and then further purified using reverse phase HPLC (Vydac C18 column) to prepare purified human MCP-1. […] 3-1. […] The test. compound was diluted in the assay buffer and used as the test compound solution. [^125I]-labeled human MCP-1 described above was diluted in assay buffer to 1 mCi/mL and used as the labeled ligand solution. In a 96 well filter plate (Millipore Co.), 25 μL of test compound solution, 25 μL of labeled ligand solution and 50 μL of cell suspension were aliquoted into each well in this order, stirred (total reaction volume 100 μL), and incubated for one hour at 18° C. After the reaction, the reaction solution was filtered, and the filter was washed twice with 200 μL of cold PBS (200 μL of cold PBS was added and then filtered). The filter was air-dried and 25 μL of liquid sciatillator was added into each well. The radioactivity retained by the cells on the filter were measured using TopCount (Packard Instrument Co.). To calculate the ability of test compound to inhibit binding of human MCP-1 to THP-1 cells, non-specific binding determined by adding 100 ng of unlabeled human MCP-1 in place of the test compound was subtracted, while the counts with no test compound added was taken as 100%. Inhibition (%)=(1-(A-B)/(C-B))×100 (A, counts with test compound added; B, counts with 100 ng of unlabeled human MCP-1 added; C, counts with [^125I]-labeled human MCP-1 added).

Row | SMILES | inhibition at 10 µM [%]
17 | O=C(CNC(=O)c1cccc(C(F)(F)F)c1)N[C@H]1CCN(Cc2ccccc2)C1 [Compound No. 239, (S)-1-Benzyl-3-[N-{3-(trifluoromethyl)benzoyl}glycyl]aminopyrrolidine] | 20 to 50
18 | O=C(CNC(=O)c1ccccc1)NCC1CCCN(Cc2ccc(Cl)cc2)C1 (stereo not drawn) [Compound No. 434, 3-{(N-Benzoylglycyl)amino}methyl-1-(4-chlorobenzyl)piperidine] | 50 to 80
19 | Nc1ccc(CN2CCC(CNC(=O)CNC(=O)c3cccc(C(F)(F)F)c3)CC2)cc1 [Compound No. 516, 1-(4-Aminobenzyl)-4-[{N-(3-(trifluoromethyl)benzoyl)glycyl}aminomethyl]piperidine] | 20 to 50
20 | O=C(CNC(=O)c1cccc(C(F)(F)F)c1)NCC1CCN(Cc2ccc(NC(=O)c3ccccc3)cc2)CC1 [Compound No. 519, 1-{4-(Benzoylamino)benzyl}-4-[{N-(3-(trifluoromethyl)benzoyl)glycyl}aminomethyl]piperidine] | 20 to 50

Same assay, conditions: Method 1, at 100 μM

Row | SMILES | inhibition at 100 µM [%]
21 | Cc1cccc(C(=O)NCC(=O)NC2CCCN(Cc3ccc(Cl)cc3)C2)c1 (stereo not drawn) [Compound No. 355, 1-(4-Chlorobenzyl)-3-[{N-(3-methylbenzoyl)glycyl}amino]piperidine] | > 80
